Our source for the IC50 values is ChEMBL document CHEMBL1158085, “Chrysosporide, a cyclic pentapeptide from a New Zealand sample of the fungus Sepedonium chrysospermum” (J Nat Prod, 2006).

For this assay, the system named is P388. Description: Cytotoxicity against mouse P388 cells. Format: functional, cell-based.

Molecules are shown by their SMILES.

For orientation: IC50 means the point on the concentration scale where inhibition reaches its midpoint. A lower IC50 goes with higher potency. `CC(C)C[C@@H]1NC(=O)[C@H](CC(C)C)NC(=O)[C@@H](C)NC(=O)[C@H](C(C)C)NC(=O)[C@@H](CC(C)C)NC1=O` [CHRYSOSPORIDE] showed a concentration for half-maximal inhibition (IC50) of 33.4 µM.
`C/C=C/[C@@H]1OC(=O)C=C[C@@H]1O` [PHOMALACTONE] showed an IC50 of 40.9 µM.
The result for `Cc1cc(O)c(C)c(O)c1C=O` reads 126 µM; that for `CC(=O)Cc1cc(O)c(C)c(O)c1C=O`, 19.7 µM.
